Test results from patent US20260166057A1, “1,3,5(10),16-ESTRATETRAEN-3-YL ACETATE FOR USE IN IMPROVING PSYCHOMOTOR OR COGNITIVE PERFORMANCE” (priority 2023, published 2026).
Where two headings read alike, the source gives them in different places.

How the values were obtained:
healthy male volunteers [1] = assay: Reaction Time Test (psychomotor performance) of the RTTET in mentally fatigued men; format: in vivo, human; conditions: for number of errors: relative to placebo, all three non-control tests; for variability in Reaction Time test: compared to caffeine and placebo; for effect on Reaction Time test compared with caffeine: midnight and 3 a.m. tests (subjects fatigued)
healthy male volunteers [2] = assay: Time Estimation Test (cognitive performance) of the RTTET in mentally fatigued men; conditions: for Time Estimation test improvement: relative to placebo
[3] = test system: healthy volunteers of both sexes; assay: Pilot human trials, nasal administration
subjects with MDD = assay: ETA supplementation in MDD subjects already receiving escitalopram (Example 8); format: in vivo, human; conditions: ETA added to escitalopram
Protocol: In subjects experiencing decreased psychomotor and/or cognitive performance in mental fatigue associated with MDD and already receiving treatment with escitalopram, a therapeutically effective amount of ETA is intranasally administered as described in Example 4 as a supplemental or adjunctive treatment. ETA is administered separately from the antidepressant treatment and is given sequentially or proximate in time to situations requiring attention and concentration. […] Psychomotor and cognitive performance improve in this group of subjects.

rat androgen receptor = rat androgen receptor (Rattus norvegicus, UniProt P15207); assay: In vitro agonist/antagonist activity on steroid receptors; format: biochemical
rats of both sexes = assay: 7-day intravenous administration to rats of both sexes; format: in vivo
[4] = test system: subjects with excessive daytime sleepiness; assay: ETA in mental fatigue associated with excessive daytime sleepiness (Example 6); format: in vivo, human; conditions: intranasal as in Example 4
From the text: In subjects experiencing decreased psychomotor and/or cognitive performance in mental fatigue associated with excessive daytime sleepiness, a therapeutically effective amount of ETA is intranasally administered as described in Example 4. Psychomotor and cognitive performance improve in this group of subjects.

male rats = assay: Intravenous and intranasal administration to male rats; format: in vivo; conditions: 600 μg/Kg intravenous, 900 μg/Kg intranasal, 7-day period
[5] = Ames reverse mutation assay; format: cell-based
[6] = test system: subjects with major depressive disorder; assay: Supplemental ETA with itruvone antidepressant therapy (Example 9); format: in vivo, human; conditions: ETA added to itruvone
From the text: Itruvone (INN, pregn-4-en-20-yn-3-one) is being developed for the treatment of MDD and is an investigational product not approved by the Food and Drug Administration. The preparation and experimental treatment of MDD with this compound are described, for example, in Monti, U.S. patent Ser. No. 10/322,138, “Treatment of Depressive Disorders,”. Both itruvone and ETA are believed to have a common mechanism of action in terms of activating olfactory chemosensory neurons in the nasal mucosa, and then activating certain hypothalamic circuits in the brain without brain or systemic uptake. In subjects receiving itruvone treatment for major depressive disorder, ETA is administered to the olfactory epithelium as described in Example 4. […] Cognitive function and psychomotor performance improve in this group of subjects. Because itruvone also is administered to the olfactory epithelium in the form of a spray or aerosol, ETA and itruvone may be administered separately, but proximate in time, or co-formulated for simultaneous intranasal administration.

[7] = test system: nasal septal olfactory chemosensory epithelium; assay: Electrophysiology: depolarization of chemosensory epithelium; set-up: species or system human
[8] = test system: subjects with peripartum depression; assay: ETA in peripartum depression (Example 10); format: in vivo, human; conditions: as in Example 4
Protocol: In subjects experiencing decreased psychomotor and/or cognitive performance associated with peripartum depression, a therapeutically effective amount of ETA is administered to the olfactory epithelium as described in Example 4. ETA is administered separately from any other antidepressant therapy and is given sequentially or proximate in time to such other medications. Depressive scores reduce when the subjects are evaluated. Psychomotor and cognitive performance improve in this group of subjects.

subjects with ADHD = assay: ETA in ADHD (Example 11); format: in vivo, human; conditions: intranasal as in Example 4
Protocol: In subjects experiencing decreased psychomotor and/or cognitive performance associated with ADHD, a therapeutically effective amount of ETA is administered intranasally as described in Example 4. Psychomotor and cognitive performance improve in this group of subjects.

bone marrow = assay: In vivo bone marrow micronucleus test
vomeronasal organ = conditions: cited from earlier work
[9] = test system: subjects with shift work sleep disorder; assay: ETA in mental fatigue associated with shift work sleep disorder (Example 5); format: in vivo, human; conditions: intranasal as in Example 4
From the text: In subjects experiencing decreased psychomotor and/or cognitive performance in mental fatigue associated with shift work sleep disorder, a therapeutically effective amount of ETA is intranasally administered as described in Example 4. Psychomotor and cognitive performance improve in this group of subjects.

[10] = test system: subjects with mild cognitive impairment; assay: ETA in mild cognitive impairment (Example 12); format: in vivo, human; conditions: intranasal as in Example 4
Protocol: In subjects experiencing decreased psychomotor and/or cognitive performance associated with mild cognitive impairment, a therapeutically effective amount of ETA is administered intranasally as described in Example 4. Psychomotor and cognitive performance improve in this group of subjects.

rat progestin receptor = rat progestin receptor (Rattus norvegicus, UniProt Q63449); assay: In vitro agonist/antagonist activity on steroid receptors; format: biochemical
[11] = test system: subjects with MDD or peripartum depression; assay: ETA in mental fatigue associated with a depressive disorder (Example 7); format: in vivo, human; conditions: nasal as in Example 4
From the text: In subjects experiencing decreased psychomotor and/or cognitive performance in mental fatigue associated with a depressive disorder such as MDD or peripartum depression, a therapeutically effective amount of ETA is nasally administered to the olfactory epithelium as described in Example 4. Psychomotor and cognitive performance improve in this group of subjects.

healthy male volunteers [12] = assay: Adverse events in the efficacy study in mentally fatigued men; conditions: ETA nasal spray 1600 ng per administration, all subjects
[13] = both men and women, more pronounced in men

rat progestin receptor, sequence (Q63449 whole entry): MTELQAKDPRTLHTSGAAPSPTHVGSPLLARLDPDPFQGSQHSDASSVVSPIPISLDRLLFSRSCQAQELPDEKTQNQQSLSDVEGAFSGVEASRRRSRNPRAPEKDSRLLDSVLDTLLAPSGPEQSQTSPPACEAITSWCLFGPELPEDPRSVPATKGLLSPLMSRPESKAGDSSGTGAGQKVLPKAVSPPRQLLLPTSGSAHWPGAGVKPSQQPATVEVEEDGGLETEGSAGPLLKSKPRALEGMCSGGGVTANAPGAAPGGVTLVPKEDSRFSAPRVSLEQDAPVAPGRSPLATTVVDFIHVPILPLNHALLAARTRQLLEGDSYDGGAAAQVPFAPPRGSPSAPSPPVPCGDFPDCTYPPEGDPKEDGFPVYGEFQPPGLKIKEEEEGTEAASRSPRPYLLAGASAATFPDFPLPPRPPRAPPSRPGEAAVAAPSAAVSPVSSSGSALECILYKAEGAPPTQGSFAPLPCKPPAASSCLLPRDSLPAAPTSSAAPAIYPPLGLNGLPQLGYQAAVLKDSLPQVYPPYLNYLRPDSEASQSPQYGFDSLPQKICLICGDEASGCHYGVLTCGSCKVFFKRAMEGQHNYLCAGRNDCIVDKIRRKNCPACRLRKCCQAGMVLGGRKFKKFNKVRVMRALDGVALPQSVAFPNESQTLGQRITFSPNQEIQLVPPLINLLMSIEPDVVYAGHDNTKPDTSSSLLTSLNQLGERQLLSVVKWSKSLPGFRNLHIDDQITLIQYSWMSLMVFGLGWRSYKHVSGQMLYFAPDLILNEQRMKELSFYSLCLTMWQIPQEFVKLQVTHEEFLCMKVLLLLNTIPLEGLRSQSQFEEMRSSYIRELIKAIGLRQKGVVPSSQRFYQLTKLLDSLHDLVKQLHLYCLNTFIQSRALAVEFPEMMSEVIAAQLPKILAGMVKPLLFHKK
rat androgen receptor, sequence (P15207 whole entry S389L): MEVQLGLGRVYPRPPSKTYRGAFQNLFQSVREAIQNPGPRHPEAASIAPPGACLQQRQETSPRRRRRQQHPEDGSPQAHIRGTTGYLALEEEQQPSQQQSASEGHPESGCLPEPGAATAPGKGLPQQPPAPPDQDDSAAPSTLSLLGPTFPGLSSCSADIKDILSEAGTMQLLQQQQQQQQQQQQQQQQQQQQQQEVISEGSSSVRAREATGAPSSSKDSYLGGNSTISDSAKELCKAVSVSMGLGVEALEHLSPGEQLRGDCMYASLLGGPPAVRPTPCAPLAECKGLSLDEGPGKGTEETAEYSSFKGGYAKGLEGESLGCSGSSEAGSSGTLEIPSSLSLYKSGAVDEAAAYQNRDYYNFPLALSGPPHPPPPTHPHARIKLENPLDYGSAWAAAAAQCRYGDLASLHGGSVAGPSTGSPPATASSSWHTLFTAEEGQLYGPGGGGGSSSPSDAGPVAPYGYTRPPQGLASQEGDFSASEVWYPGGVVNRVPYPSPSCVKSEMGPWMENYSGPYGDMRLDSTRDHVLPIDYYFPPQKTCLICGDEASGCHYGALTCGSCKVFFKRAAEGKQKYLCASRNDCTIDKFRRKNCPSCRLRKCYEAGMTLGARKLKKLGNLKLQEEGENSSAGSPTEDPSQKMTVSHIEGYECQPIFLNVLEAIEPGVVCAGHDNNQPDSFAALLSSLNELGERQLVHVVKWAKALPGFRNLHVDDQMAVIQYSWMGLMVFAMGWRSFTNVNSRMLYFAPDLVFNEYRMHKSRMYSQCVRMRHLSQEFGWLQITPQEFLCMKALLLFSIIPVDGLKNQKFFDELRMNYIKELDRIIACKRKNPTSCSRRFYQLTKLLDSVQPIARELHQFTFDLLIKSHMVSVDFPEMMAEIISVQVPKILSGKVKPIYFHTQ

Compound: CC(=O)Oc1ccc2c(c1)CC[C@@H]1[C@@H]2CC[C@]2(C)C=CC[C@@H]12 [ETA, 1,3,5(10),16-Estratetraen-3-yl acetate]
- number of errors (healthy male volunteers [1]; isochronous stimuli): significantly decrease
- variability in Reaction Time test (healthy male volunteers [1]; isochronous): less variability
- effect on Reaction Time test compared with caffeine (healthy male volunteers [1]; isochronous, p<0.001): significantly better than the effect of caffeine
- number of errors (healthy male volunteers [1]; stochastic stimuli): significantly decrease
- variability in Reaction Time test (healthy male volunteers [1]; stochastic): less variability
- effect on Reaction Time test compared with caffeine (healthy male volunteers [1]; stochastic, p<0.0001): significantly better than the effect of caffeine
- Time Estimation test improvement (healthy male volunteers [2]; 3 a.m. test): significantly improved
- Time Estimation test improvement relative to caffeine (healthy male volunteers [2]; midnight and 3 a.m. tests, p<0.01): significantly improved
- Time Estimation test improvement (healthy male volunteers [2]; midnight test): significantly improved
- alpha frequency band of the electroencephalogram ([3]; intranasal administration): did not have significant effect
- beta frequency band of the electroencephalogram ([3]; intranasal administration): did not have significant effect
- body temperature ([3]; intranasal administration): did not have significant effect
- duration of the QTc intervals of the electrocardiogram ([3]; intranasal administration): did not change
- frequency of electrodermal activity events (skin conductance) ([3]; intranasal administration): significantly increased
- tolerability ([3]; nasal administration, healthy volunteers): well tolerated
- depressive scores (subjects with MDD): reduce beyond that of the escitalopram alone
- psychomotor and cognitive performance (subjects with MDD): improve
- agonist or antagonist activity (rat androgen receptor): no agonist or antagonist activity
- mortality, adverse symptoms, changes in behavior (rats of both sexes; 1 mg/day intravenously, rats of both sexes, 7-day period): no mortality or adverse symptoms, or changes in behavior
- macroscopic or microscopic changes in organs (rats of both sexes; rat, in vivo, iv): no macroscopic or microscopic changes
- psychomotor and cognitive performance [4]: improve
- mortality, adverse symptoms, changes in behavior (male rats): no mortality or adverse symptoms, or changes in behavior
- genotoxicity: mutagenic or clastogenic potential [5]: no evidence of mutagenic or clastogenic potential
- cognitive function and psychomotor performance [6]: improve
- depressive scores [6]: reduce beyond that of itruvone alone
- electrotonic depolarization [7]: electrotonic depolarization
- depressive scores [8]: reduce
- psychomotor and cognitive performance [8]: improve
- psychomotor and cognitive performance (subjects with ADHD): improve
- genotoxicity: mutagenic or clastogenic potential (bone marrow): no evidence of mutagenic or clastogenic potential
- change in mass receptor potential (electrovomerogram) (vomeronasal organ; 60 pg dose to the vomeronasal organ, vs control (propylene glycol), men vs women): higher amplitude in men
- skin temperature (vomeronasal organ; both men and women, more pronounced in men (FIGS. 6G and 6H)): increase
- electrovomerogram (vomeronasal organ; [13]): increase
- α-cortical activity (vomeronasal organ; [13]): increase
- skin temperature (vomeronasal organ; men, vs control (FIG. 4C)): increase
- integrated electrovomerogram (vomeronasal organ; men, vs control): increase
- skin resistance (vomeronasal organ; men, vs control): decrease
- electrodermal activity (vomeronasal organ; men): decrease
- psychomotor and cognitive performance [9]: improve
- psychomotor and cognitive performance [10]: improve
- agonist or antagonist activity (rat progestin receptor): no agonist or antagonist activity
- psychomotor and cognitive performance [11]: improve
- tolerability (healthy male volunteers [12]): well tolerated
